According to US12122760B2, “Compound, composition, and use thereof in preparation of drug” (CHANGSHA ZEDA MEDICAL TECH. CO., LTD, priority 2019, dated 2024):
pIC50: −log10 of the molar value.

Experiments:
[1] = tested on: AR protein in MDA-MB-453 TNBC cells; assay: AR protein Western blot in MDA-MB-453 cells; type: cell-based; settings: 48 h, FIG. 8
Procedure: MDA-MB-453 cells treated with Zeta55 or Tubastatin A at indicated concentrations for 48 h were harvested and lysed in ice-cold RIPA buffer with protease inhibitor Cocktail. After quantification by BCA, protein (30-50 μg) were separated with 10% SDS-PAGE gels and transferred onto polyvinylidene difluoride (PVDF) membranes. The following antibodies were used in this study: AR(CST,1:1000),α-tubulin(CST,1:1000), Ac-α-tubulin(CST,1:1000). Secondary antibodies: HRP-conjugated anti-mouse IgG and anti-rabbit IgG (Proteintech, 1:5000).

[2] = target: T1, AR-LBD (GST) (Rattus norvegicus, UniProt P15207); assay: PolarScreen Androgen Receptor (AR) Competitor Assay, binding experiment of the antagonist and AR; settings: fluorescence polarization, incubated 6 hours, FIG. 1; read-out: IC50 of the drug and AR-LBD binding
T1 construct: purchased Life technologies company, USA
T1 sequence (P15207 651-882 limits assumed): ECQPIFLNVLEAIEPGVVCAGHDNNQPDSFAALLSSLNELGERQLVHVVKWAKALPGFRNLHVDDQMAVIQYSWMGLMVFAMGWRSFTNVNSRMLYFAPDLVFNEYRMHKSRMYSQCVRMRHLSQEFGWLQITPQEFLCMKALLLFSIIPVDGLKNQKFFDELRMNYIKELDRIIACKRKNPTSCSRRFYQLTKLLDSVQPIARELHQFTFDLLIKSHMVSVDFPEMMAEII
Description: PolarScreen™ Androgen Receptor (AR) Competitor Assay, Green kit (Life technologies company, USA) is used to test the affinity of the antagonist to AR-LBD (GST). The mechanism of the experiment is that the AR-LBD is combined with a small molecule fluormone tracer (Fluormone Tracer), and an antagonist added can competitively bind with AR-LBD so as to replace the fluormone tracer, and the replaced fluormone tracer […], and the value of the fluorescence polarization is inversely proportional to the number of the replaced tracers.
A specific process is as follows: the drug is dissolved into 500 uM by using DMSO, and then diluted to 244 nM by double dilution concentration gradients in a 96-well plate. A 10 uL of a reaction system AR-LBD+Tracer is configured in a 384-well plate and 10 uL of the drug solution is added. The positive control is 10 uL of AR-LBD+Tracer with 10 uL of DHT added. The 384-well plate is wrapped by tin foil and incubated for 6 hours in the dark. The fluorescence polarization value is read on a multi-function microplate reader. Graphpad Prism software is used to draw a drug concentration as an abscissa, and the fluorescence polarization value is used as an ordinate for drawing a curve. […] Herein, the DHT, MDV3100, and ARN509 are positive controls.

[3] = tested on: Histone deacetylase (HDAC); assay: HDAC inhibitory activity: Kac-tubulin Western Blot in VCaP cells; type: cell-based; settings: 10 uM drug, 24 h, FIG. 4
Procedure: The VCap cells are cultured in the 6-well plate. After treating the VCap cells with the drugs for 24 hours, acetylation levels of the tubulin in the cytoplasm and the H3 protein in the nucleus are examined by the western blot. An experiment process is as follows:
The VCaP cells are spread in the 6-well plate. 5×10^5 cells are inoculated per well, and incubated overnight to make the cells stick to a wall. On the second day, 10 uM of the drug is added per well. After being incubated for 24 h, the cells are collected, and lysed to extract the cell total protein. The Western Blot method is used to detect the expression levels of Kac-tubilin (localized cytoplasm) in the cells after treating with the different drugs.

[4] = tested on: AR-negative cells (293T and DU145); assay: Selective effects of the drug to cells (MTS), AR-negative cells; type: cell-based, human; settings: 293T and DU145, 4 days treatment, FIG. 10
Procedure: 293T cells are AR-negative human embryonic kidney cells, DU145 cells are AR-negative prostate cancer cells, and VCaP cells are AR-positive prostate cancer cells. These three types of the cells are cultured in the 96-well plates and treated with the drugs (in the concentration gradient) respectively for 4 days. Then the inhibition of the drugs on cell proliferation are measure by MTS. Detailed process is as follows:
(§1) The VCaP cells are cultured with 5% CSS and 1640 medium without phenol red, and inoculated in the 96-well plates, and 1×10^4 cells are added to each well. The 293T cells and the DU145 cells are cultured with 10% FBS and 1640 medium, and inoculated in the 96-well plates, and 2×10^3 cells are added to each well. The cells are incubated overnight to make the cells stick to a wall. Then the different concentrations of the drugs are added on the second day. After treatment with the drugs for 4 days, cell viability is measured by the MTS kit (Promega, USA). To each well, 10% of an MTS reagent is added, and incubation continued for 2 hours. The absorbance value at […] is then measured by the multi-functional microplate reader. The Graphpad Prism software is used to draw a curve by using the drug concentration as an abscissa and using the absorbance value of the drug treatment/the absorbance value of the blank treatment cell as an ordinate.

[5] = tested on: VCaP cells; assay: Inhibiting effect on VCaP cell proliferation (MTS); type: cell-based; settings: 4 days treatment, FIG. 6
Procedure: Androgen-sensitive prostate cancer cell (VCaP cells) are cultured in a 96-well plate. The VCaP cells are able to proliferate in a medium supplemented with 10 nM of the DHT. After treating the cells with the drugs for 4 days, we measure the effects of the drugs on the proliferation of the prostate cancer cells.
as §1, with “cultured by using” for “cultured with”, “96-well plate.” for “96-well plates, and”, “each well,” for “each well. The 293T cells”, “and” for “and the DU145 cells are cultured with 10% FBS and 1640 medium, and inoculated in the 96-well plates, and 2×10^3 cells are added to each well. The cells are”, “wall. Different” for “wall. Then the different”, “After treating the cells” for “After treatment”

N#Cc1ccc(N2C(=O)C3(CCC3)N(c3ccc(C(=O)NO)c(F)c3)C2=S)cc1C(F)(F)F [Zeta 55, 4-(7-(4-cyano-3-(trifluoromethyl)phenyl)-8-oxo-6-thio-5,7-diazaspiro[3.4]octane-5-yl)-2-fluoro-N-hydroxybenzamide]
reduction of AR protein [1]: significant dose-dependent reduction of AR protein | pIC50 [2]: 4.53 | acetylation of the tubulin in the cytoplasm (HDAC inhibitory activity) [3]: superior | cytotoxicity toward AR-negative cells [4]: may have low cytotoxicity toward AR-negative cells | inhibitory effect on the VCap cell proliferation, from high to low [5]: Zeta55>Zeta32>Zeta33>Zeta34>Zeta57 | cell proliferation inhibitory effect compared with positive control drug MDV3100 ([5]; VCaP cells): better than that of the positive control drug MDV3100
